Where two headings read alike, the source gives them in different places.
Legend:
ddy strain of male mice [1] = experiment: Analgesic activity, Haffner method; format: in vivo, mouse (ddy strain; conditions: with threshold morphine hydrochloride s.c.; for Analgesic activity, Haffner method, 50% effective dose, ED50 (values with Δ marks): oral, range in parentheses
Experimental: (§1) Next, several tests for determining the pharmacological properties, in that acute toxicity, anti-pyretic activity, analgesic activity and anti-inflammatory activity of the present 1,1,3,5-substituted biuret compounds of the formula (1) were conducted and the test results are shown in Table (2). In the tests, each compounds to be tested was used as a suspension in 0.25% carboxymethylcellulose solution. Methods for testing are explained as follows:
According to the modified method reported by Fujimura et al., [Bulletin of the Institute for Chemical Research, Kyoto University, No. 25, pp. 36 (1951)], the ddy strain of male mice (body weight, 20-25 g) were used as test animals. The mice were fasted overnight, 100 mg/kg body weight of the test compound was administered orally, then 45 minutes after the administration, the threshold amount (1.5-2.5 mg/kg body weight) of morphine hydrochloride was injected subcutaneously. Then 1-hour pain reaction of the mouse caused by a clamp was observed. Analgesic activity of the test compound was calculated as the inhibitory ratio (%). In Table 2, the values in parentheses show the data obtained from the test by using the dosage other than 100 mg/kg body weight. Further, the values indicated with Δ marks show 50% effective dose, ED50 (mg/kg body weight).

[2] = Acute toxicity (oral, 7 days observation); format: in vivo; conditions: mouse, in vivo; oral, mice, 7 days; read-out: Acute toxicity, 50% lethal dose, LD50 (values with Δ marks)
Experimental: as §1
The ddy strain of male mice (body weight, 20-25 g) were used as test animals. The mice were fasted overnight and the compound to be tested was administered orally. […] The lethal dose (mg/kg, body weight) of the test compound was determined in connection with the death number of mice/the number of mice tested. In Table 2, the values indicated with Δ marks are 50% lethal dose, LD50 (mg/kg, body weight).

[3] = system: Wistar strain of male rats; experiment: Anti-inflammatory activity, acute carrageenin-induced inflammatory test; format: in vivo, rat (Wistar strain; conditions: Rattus norvegicus
Experimental: as §1
According to the method of acute carrageenin-induced inflammatory test [Folia Pharmacologia Japonica, Vol. 56, pp. 575 (1960)], the Wistar strain of male rats (body weight, 150-180 g) were used as test animals. The rats were fasted overnight, 100 mg/kg body weight of the test compound was administered orally, then 1 hour after the administration, 0.1 ml of 1% carrageenin solution, as the inflammation inducing agent, was injected subcutaneously to the hindpaw of the rat and the volume of the hindpaw was measured at time sequences. Anti-inflammatory activity of the test compound was calculated as inflammation inhibitory ratio (%) at 3 hours after the injection of the inflammation inducing agent.

ddy strain of male mice [4] = experiment: Analgesic activity, acetic acid-induced stretching method; format: in vivo, mouse (ddy strain; conditions: Mus musculus, po; for inhibition in vivo at 100 mg/kg: read-out: Analgesic activity, acetic acid-induced stretching method, inhibitory ratio; for ED50: read-out: Analgesic activity, acetic acid-induced stretching method, 50% effective dose, ED50 (values with Δ marks)
Experimental: as §1
According to the method reported by Koster et al., [Fed. Proc., Vol. 18, pp. 412 (1959)], the ddy strain of male mice (body weight, 20-25 g) were used as test animals. The mice were fasted overnight, 100 mg/kg body weight of the test compound was administered orally, then 1 hour after the administration, 0.2 ml of 0.7% acetic acid solution was injected intraperitoneally. The acetic acid-induced stretching symptom of mouse was observed. Analgesic activity of the test compound was calculated as the inhibitory ratio (%). In Table 2, the values in Parentheses show the data obtained from the test by using the dosage other than 100 mg/kg body weight. Further, the values indicated with Δ marks show 50% effective dose, ED50 (mg/kg body weight).

[5] = system: Wistar strain of male rats; experiment: Anti-pyretic activity (dry-yeast induced fever); format: in vivo, rat (Wistar strain; conditions: oral, up to 4 hours after administration, dose not given
Experimental: as §1
According to the method reported by Tanabe [Folia Pharmacologia Japonica, Vol. 73, pp. 803 (1977)], the Wistar strain of male rats (150-180 g body weight) were used as test animals. The rats were fasted overnight, and 1 ml/100 g (body weight) of 10% dry-yeast suspension were subcutaneously injected on the back of the rats. Five hours after the injection, the test compound was administered orally, then the body temperature of the rat was measured at time sequences. Anti-pyretic activity of the test compound was determined as the FI (febril index) by integrating pyrogenetic curve up to 4 hours after the administration of the test compound with time, and indicated as inhibitory ratio (%) shown by the following formula, [formula]

[6] = 100 mg/kg oral, rats, 3 hours after carrageenin, read-out: Anti-inflammatory activity, inflammation inhibitory ratio
[7] = po, 3 h, read-out: Anti-inflammatory activity, inflammation inhibitory ratio
[8] = po, 2 h, read-out: Anti-inflammatory activity, inflammation inhibitory ratio (2 hours value)

Row | SMILES | Analgesic activity, Haffner method, inhibitory ratio (ddy strain of male mice [1]; 100 mg/kg oral) [%] | LD50 at 168 h [2] [mg/kg] | inhibition in vivo at 100 mg/kg [3, 6] [%] | inhibition in vivo at 100 mg/kg (ddy strain of male mice [4]) [%] | Anti-pyretic activity, inhibitory ratio of febril index (FI) [5] [%] | Analgesic activity, Haffner method, 50% effective dose, ED50 (values with Δ marks) (ddy strain of male mice [1]) | inhibition in vivo at 100 mg/kg [3, 7] [%] | ED50 (ddy strain of male mice [4]) [mg/kg] | inhibition in vivo at 100 mg/kg [3, 8] [%] | Analgesic activity, Haffner method, inhibitory ratio (ddy strain of male mice [1]; 200 mg/kg oral) [%]
1 | CN(C)C(=O)N(C)C(=O)Nc1ccc(F)cc1 [Compound No. 3, 1,1,3-Trimethyl-5-(4-fluorophenyl)biuret] | 62.5 | 930 | 37 | 87.5 | 61 |  |  |  |  | 
2 | CN(C)C(=O)N(C)C(=O)Nc1ccc(Cl)cc1 [Compound No. 7, 1,1,3-trimethyl-5-p-chlorophenylbiuret] |  | 1200 |  |  | 84 | 20(11-35) mg/kg | 47 | 12 |  | 
3 | CN(C)C(=O)N(C)C(=O)Nc1ccc(Br)cc1 [Compound No. 11, 1,1,3-Trimethyl-5-(4-bromophenyl)biuret] |  | 1350 |  |  | 103 | 74(49-113) mg/kg |  | 60 | 48 | 
4 | COc1ccc(NC(=O)N(C)C(=O)N(C)C)cc1 [Compound No. 17, 1,1,3-Trimethyl-5-(4-methoxyphenyl)biuret] |  | 1800 |  |  | 75 | 42 to 153 mg/kg | 33 | 39 |  | 
5 | CN(C)C(=O)N(C)C(=O)Nc1cccc(Cl)c1 [compound 6, 1,1,3-Trimethyl-5-(3-chlorophenyl)biuret] |  | 1480 |  | 62.5 | 43 |  |  |  | 30 | 75
6 | CN(C)C(=O)N(C)C(=O)Nc1c(Cl)cccc1Cl [compound 9, 1,1,3-Trimethyl-5-(2,6-dichlorophenyl)biuret] | 50 | 1100 | 25 | 50 | 29 |  |  |  |  | 
7 | Cc1ccccc1NC(=O)N(C)C(=O)N(C)C [compound 20, 1,1,3-Trimethyl-5-(2-methylphenyl)biuret] | 50 | 1000 |  | 37.5 | 41 |  | 29 |  |  | 

Source: US4293713A, “Novel 1,1,3,5-substituted biuret compound and a pharmaceutical composition containing the same” (priority 1979, dated 1981)
